Results reported in patent publication US20050192262A1, “Treatment of tumours” (priority 2001, published 2005).

Columns and labels:
PPARγ = biological target: T1, PPARγ (Mus musculus, UniProt P37238); test: Ligand-induced coactivator interaction assay (GST-PPARγ / SRC-1); type: biochemical; conditions: for PPARγ-ligand activity of the steroid per se: 10 and 100 μM solutions, no liver cytosol; for band in coactivator assay, steroid incubated with liver cytosol: liver cytosol alone gives weak bands, no PAPS
T1 construct: made in house; host or cells: E. coli strain Y 1090 (GST-PPARγ); TNT Coupled Reticulocyte Lysate System, Promega (SRC-1)
T1 sequence (P37238 whole entry): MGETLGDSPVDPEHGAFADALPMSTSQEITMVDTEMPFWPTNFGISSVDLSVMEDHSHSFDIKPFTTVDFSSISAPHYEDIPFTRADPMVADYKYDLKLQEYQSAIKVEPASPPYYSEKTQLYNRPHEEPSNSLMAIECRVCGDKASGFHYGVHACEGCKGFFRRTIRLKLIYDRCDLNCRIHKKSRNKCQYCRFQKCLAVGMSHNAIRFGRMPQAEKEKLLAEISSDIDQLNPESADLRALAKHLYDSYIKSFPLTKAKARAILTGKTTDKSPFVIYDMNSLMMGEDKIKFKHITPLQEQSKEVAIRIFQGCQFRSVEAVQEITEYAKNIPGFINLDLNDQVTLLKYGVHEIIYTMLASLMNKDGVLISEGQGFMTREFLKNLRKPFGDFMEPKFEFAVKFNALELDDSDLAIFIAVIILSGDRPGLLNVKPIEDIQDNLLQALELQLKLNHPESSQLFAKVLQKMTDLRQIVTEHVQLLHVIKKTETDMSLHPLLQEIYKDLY
T1 sequence (Q15788 whole entry partner): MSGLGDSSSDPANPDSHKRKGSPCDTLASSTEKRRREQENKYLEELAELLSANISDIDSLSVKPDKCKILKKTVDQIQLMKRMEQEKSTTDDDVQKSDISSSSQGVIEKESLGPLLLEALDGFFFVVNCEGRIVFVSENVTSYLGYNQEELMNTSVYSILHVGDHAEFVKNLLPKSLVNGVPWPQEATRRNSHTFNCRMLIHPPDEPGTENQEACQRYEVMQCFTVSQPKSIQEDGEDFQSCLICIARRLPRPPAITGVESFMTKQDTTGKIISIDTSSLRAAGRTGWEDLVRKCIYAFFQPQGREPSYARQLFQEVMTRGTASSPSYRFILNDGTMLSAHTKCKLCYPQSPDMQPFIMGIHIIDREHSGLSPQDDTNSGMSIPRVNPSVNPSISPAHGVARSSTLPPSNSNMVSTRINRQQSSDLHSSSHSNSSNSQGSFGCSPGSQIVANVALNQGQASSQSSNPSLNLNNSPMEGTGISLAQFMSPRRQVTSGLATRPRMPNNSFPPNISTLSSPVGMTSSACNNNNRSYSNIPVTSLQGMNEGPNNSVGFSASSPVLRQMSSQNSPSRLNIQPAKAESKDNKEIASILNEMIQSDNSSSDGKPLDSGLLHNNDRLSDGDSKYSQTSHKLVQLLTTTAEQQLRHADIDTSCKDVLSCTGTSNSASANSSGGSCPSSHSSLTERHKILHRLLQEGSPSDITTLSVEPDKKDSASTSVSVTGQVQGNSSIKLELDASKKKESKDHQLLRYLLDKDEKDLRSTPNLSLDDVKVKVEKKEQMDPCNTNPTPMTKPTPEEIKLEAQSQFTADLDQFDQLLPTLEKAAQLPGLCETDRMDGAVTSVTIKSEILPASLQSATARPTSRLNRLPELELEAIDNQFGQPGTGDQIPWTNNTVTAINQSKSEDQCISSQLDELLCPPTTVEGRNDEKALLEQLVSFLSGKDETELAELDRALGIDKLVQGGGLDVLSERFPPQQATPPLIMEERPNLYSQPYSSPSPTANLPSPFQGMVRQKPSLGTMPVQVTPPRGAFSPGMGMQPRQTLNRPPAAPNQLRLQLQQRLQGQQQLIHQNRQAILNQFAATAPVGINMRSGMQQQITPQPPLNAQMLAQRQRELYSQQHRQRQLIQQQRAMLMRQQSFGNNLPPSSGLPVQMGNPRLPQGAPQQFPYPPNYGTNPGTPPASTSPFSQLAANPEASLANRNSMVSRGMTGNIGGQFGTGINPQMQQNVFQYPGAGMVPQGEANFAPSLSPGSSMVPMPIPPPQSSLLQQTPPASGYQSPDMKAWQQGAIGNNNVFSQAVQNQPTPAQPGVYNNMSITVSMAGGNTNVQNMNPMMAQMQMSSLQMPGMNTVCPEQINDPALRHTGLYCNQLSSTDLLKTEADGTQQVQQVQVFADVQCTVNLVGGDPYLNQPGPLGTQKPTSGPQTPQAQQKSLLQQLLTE
Procedure: ApcDNA3-SRC-1 construct was used as template to prepare (^35S-methionine)-SRC-1 by in vitro transcription and translation using the TNT® Coupled Reticulocyte Lysate System (Promega).
Ligand-induced interactions between GST-PPARγ and SRC-1: To generate GST-PPARγ fusion protein, mouse PPARγcDNA was inserted into the NcoI-HindIII sites of pGEX-KG, and protein was then expressed in E. coli, strain Y 1090. The bacteria were lysed by sonication in TEDG buffer (50 mM Tris (pH 7.4), 1.5 mM EDTA, 10% glycerol, 0.4 M NaCl, 0.1 mM DTT) containing the following protease inhibitors: 0.5 mM PMSF, 1 mM benzamidine, 10 μg/ml leupeptin, 10 μg/ml antipain and […] aprotinin. The lysates were centrifuged at 100,000×g for 60 min in a SW 41 rotor using a Beckman L8-70 M ultracentrifuge. The fusion protein was immobilized on GSH Sepharose beads (Pharmacia) and then incubated with potential ligands in (FIG. 5) 10 mM Tris (pH7.4), 0.12 M KCl, 8% glycerol, 4 mM DTT, and 0.5% CHAPS (buffer AA) for 30 min at room temperature. Thereafter, (^35S methionine) SRC-1 (ca 0.1 μCi) was added, and the beads were incubated for another hour at 4° C. and then washed extensively with buffer A. SDS sample buffer was added to the beads, and the samples boiled prior to separation on 7.5% SDS-PAGE. Radioactivity was detected by autoradiography.
α- and β-AED were investigated in above assay for PPARγ ligand activity in 10 and 100 μM solutions in ethanol 10%, in distilled water. 10 μL aliquots of α-AED-solution or β-AED-solution were also added to a preparation of a male rat liver cytosolic preparation prepared as follows:
A homogenate of a rat liver, a known source of steroid sulphotransferase activity, was prepared using a food processor. The liver homogenate was protected from serine-proteases by the addition of 2 mmol of PMSF, 1 mmol of EDTA and 10 mmol Tris-HCl buffered to a pH of 7.40. The homogenate was prepared at 4° C. and then centrifuged at 15000 g for 10 minutes, followed by centrifugation at 100000 g for an hour at 4° C. The supernatant was divided into test tubes containing one of the following steroids: 17β-AED or 17α-AED in 5 μM concentration together with 100 μL of liver cytosol. One test tube served as positive control and contained SCR-1.
In a second experiment the following steroids were tested for activity: 17α-AED, 17OH-pregnenolone and 5-androstene-3β,7β,17α-triol with and without 10 μL of […] (PAPS), Sigma Chemicals, corresponding to 0.1 mg of PAPS. One test tube served as a positive control and contained SRC-1 Instead of steroid. One test tube contained liver cytosol where the steroid sulphotransferase was inactivated by heating to 45° C. for 30 minutes. Tubes were stirred at 20° C. for 1 hour and the contents were investigated in the receptor-coactivator assay for ligand activity (FIG. 5).
17α-AED was treated in the method described by Arnostova, Libuse M.; Pouzar, Vladimir; Drasar, Pavel. Inst. Org. Chem. Biochem., Czech. Acad. Sci., Prague, Czech. Synth. Commun. (1990), 20(10), 1521-9, where acetate is used as protection group and pyridine —SO3 complex as the sulfating agent. Deprotection with an excess of 0.8M NaOH in MeOH-water provides the desired hydroxy sulfate, which is investigated, for PPARγ-activity in the ligand-activated-coactivator receptor assay described above.

β-catenin = test: Western blotting of Dunning AT-1 rat prostate tumours; type: in vivo; conditions: for β-catenin expression, optical density: Animals I, controls set to 100, mean (range), α-AED 10 mg 96 hours, β-AED 80 mg 456 hours, α+β sequential; for expression of β-catenin: Animals II, exposure 80 hours in all arms
Procedure: The animal experiment described above was repeated.
Thawed rat tumours from both experiments above were homogenized in ice cold lysis-buffer. (160 mM NaCl, 10 mM HEPES, 2 mM CaCl2, 5% SDS, 0.5% Triton X-100, 100 μg/ml phenyl-metylsulfonyl fluoride, 1 μg/ml leupeptin and 2 μg/ml aprotinin), placed on ice for 15 minutes and following clarification centrifuged for 10 minutes at 13,000 g. Protein content of homogenates were determined by Lowry assay.
Protein in lysates (90 μg) were separated by electrophoresis using 8% SDS-PAGE and separated proteins were transferred onto a nitrocellulose membrane (Amersham) in trans-blot electrophoretic transfer cell (Bio-Rad Laboratories).
After washing in TTBS the blots were reincubated with horseradish peroxidase conjugated secondary antibody (anti-goat antibodies 2020, Santa Cruz) diluted 1:4000 in TTBS containing 3% (w/v) non-fat, dried milk for one hour. Blots were developed using an enhanced chemiluminescence system (ECL, Amersham) and exposed to Hyperfilm ECL (Amersham). Optical density was measured densitometrically.
The blots were striped and rehybridized with antibodies against β-catenin (C-18, sc. 1496) and COX-2 (C-20, sc 1745) antibodies.
In the second animal experiment tumours were investigated for expression of β-catenin, COX-2 and cyclin D1 (A-12, sc. 8396).

3T3-L1 fibroblasts = conditions: 200 nM
Procedure: 3T3L1 fibroblasts from ATCC (embryonic muscle cell-line) batch F-12732 (batch-date 930301) were grown in 500 ml of DMEM, 50 ml of fetal bovine serum (FBS) and 11 ml of PEST. Medium was changed every second day. Cells were passaged when they were 80% confluent.
For differentiating purpose fibroblasts were Incubated in DMEM+10% FCS+5 kg/ml of insulin. 0.1 mM of IBMX and 0.25 μM of dexametason was added. After 2 days cells were transferred to DMEM+10% FCS+5 μg/ml Insulin. Medium was then changed every second day and consisted of DMEM+10% FCS. […] This served as positive control for differentiation.
Fibroblasts were also incubated with the same solutions except that IBMX and dexamethasone were exchanged with solutions of 17α-AED in ethanol and water, making the concentration of 17α-AED 100 or 200 nM in the cultures. Cultures were kept in incubator until confluent.

[1] = system: Dunning AT-1, rat prostatic tumour; test: Tumour morphology; conditions: Animals I
Procedure: Group 4 served as untreated, tumour-bearing controls. In all treatments equal amounts of PEG 400 (Sigma Chemicals) and ethanol, 0.5 ml was used as vehicle and injected s.c. adjacent to the tumour site.
In group 2 the experiment was terminated after 96 hours and for the remaining groups after 19 days through asphyxiation of rats with carbon dioxide.

[2] = system: Dunning AT-1 rat prostate cancer
[3] = system: Dunning AT-1 rat prostatic tumour; conditions: sections of treated rat prostatic tumour
Description: Tumours were investigated for Increased apoptosis with the Apop-Tag In situ apoptosis detection kit (Oncor, Gaithersburg, Md.).

| Compound | PPARγ-ligand activity of the steroid per se (PPARγ) | band in coactivator assay, steroid incubated with liver cytosol (PPARγ) | β-catenin expression, optical density (β-catenin) | expression of β-catenin (β-catenin) | cell proliferation (3T3-L1 fibroblasts) | tumour appearance (morphology) [1] | mean S-phase ([2]; treated Dunning AT-1 samples, untreated 25.5%) | Proportion of cells in G1 ([2]; treated tumours, control tumours 59%) | PPARγ-ligand activity, steroid + liver cytosol + PAPS (PPARγ; second experiment, active liver cytosol, sulfate formed in situ) | PPARγ-ligand activity, native steroid + liver cytosol (PPARγ; second experiment, without PAPS) | programmed cell death compared to control (TUNEL) [3] |
| --- | --- | --- | --- | --- | --- | --- | --- | --- | --- | --- | --- |
| C[C@]12CC[C@H]3[C@@H](CC=C4C[C@@H](O)CC[C@@]43C)[C@@H]1CC[C@@H]2O [Compound 17β-AED, reference compound] | No sign of transcription pointing to a ligand activity | identical result | 14(10-22) | did not reduce |  |  |  |  |  |  |  |
| C[C@]12CC[C@H]3[C@@H](CC=C4C[C@@H](O)CC[C@@]43C)[C@@H]1CC[C@H]2O [Compound 17α-AED, androstene-3β,17α-diol] | No sign of transcription pointing to a ligand activity | band was extinguished | 20(15-30) | marked decrease | marked inhibition of cell proliferation | devitalized tumour tissue in circumscribed areas | 45.3% | 35% | significant difference in signal | insignificant responses | no sign of increased programmed cell death |
